Test results reported in ChEMBL document CHEMBL1135070, “Synthesis of a magnosalin derivative, 4-(3,4,5-trimethoxyphenyl)-6-(2,4,5-trimethoxyphenyl)-2-diethylaminopyrimidine, and the anti-angiogenic and anti-rheumatic effect on mice by oral administration” (Bioorg Med Chem Lett, 2002).

How the values were obtained:
HUVEC [1] = test: Anti-proliferative effect on human umbilical vein endothelial cells (HUVEC) induced by endothelial cell growth supplement (ECGS); format: functional, cell-based
Homo sapiens [2] = species: Homo sapiens; test: Anti-proliferative activity on NHDF induced by fetal bovine serum (FBS) at 0.3 uM concentration by measuring [3H]thymidine incorporation; format: functional
HUVEC [3] = test: Anti-proliferative effect on HUVEC induced by basic fibroblast growth factor (bFGF)at 0.3 uM concentration by measuring [3H]thymidine incorporation; format: functional, Homo sapiens
HUVEC [4] = test: Anti-proliferative effect on human umbilical vein endothelial cells (HUVEC) induced by ECGS at 0 uM concentration by measuring [3H]thymidine incorporation; format: functional
HUVEC [5] = test: Anti-proliferative effect on HUVEC induced by fetal bovine serum (FBS) at 1 uM concentration by measuring [3H]-thymidine incorporation; format: functional, Homo sapiens
[6] = Anti-proliferative activity of KB cells from head and neck cancer cell line induced by fetal bovine serum (FBS) at 1 (uM) concentrations for [3H]- thymidine incorporation; format: functional, Homo sapiens, Cancer cell lines
HUVEC [7] = test: Anti-proliferative effect on human umbilical vein endothelial cells (HUVEC) induced by fetal bovine serum (FBS) at 0.3 (uM) concentration; format: functional
[8] = Anti-proliferative activity of KB cells from head and neck cancer cell line induced by fetal bovine serum (FBS) at 0.3 (uM) concentrations for % inhibition; format: functional, Homo sapiens, Cancer cell lines
Homo sapiens [9] = species: Homo sapiens; test: Anti-proliferative activity on normal human dermal fibroblasts (NHDF) induced by fetal bovine serum (FBS) at 1 uM concentration; format: functional
HUVEC [10] = test: Anti-proliferative effect on HUVEC induced by fetal bovine serum (FBS) at 0.3 uM concentration by measuring [3H]thymidine incorporation; format: functional, Homo sapiens
[11] = Anti-proliferative activity of KB cells from head and neck cancer cell line induced by fetal bovine serum (FBS) at 0 uM concentrations for [3H]thymidine incorporation; format: functional, Homo sapiens, Cancer cell lines
[12] = Anti-proliferative activity of KB cells from head and neck cancer cell line induced by fetal bovine serum (FBS) at 1 (uM) concentration for % inhibition; format: functional, Homo sapiens, Cancer cell lines
HUVEC [13] = test: Anti-proliferative effect on HUVEC induced by fetal bovine serum (FBS) at 0.1 uM concentration by measuring [3H]thymidine incorporation; format: functional, Homo sapiens
Mus musculus [14] = test: Antirheumatic effect was determined in mice after oral administration of a dose of 30 mg/kg/day at day 14; format: functional; conditions: 336 h
HUVEC [15] = test: Anti-proliferative effect on HUVEC induced by vascular endothelial growth factor (VEGF)at 0.3 uM concentration by measuring [3H]thymidine incorporation; format: functional, Homo sapiens
HUVEC [16] = test: Anti-proliferative effect on HUVEC induced by basic fibroblast growth factor (bFGF)at 0 uM concentration by measuring [3H]thymidine incorporation; format: functional, Homo sapiens
HUVEC [17] = test: Anti-proliferative effect on human umbilical vein endothelial cells (HUVEC) induced by basic fibroblast growth factor (bFGF); format: functional, cell-based
HUVEC [18] = test: Anti-proliferative effect on human umbilical vein endothelial cells (HUVEC) induced by vascular endothelial growth factor (VEGF) at 1 (uM) concentration; format: functional
HUVEC [19] = test: Anti-proliferative effect on HUVEC induced by vascular endothelial growth factor (VEGF)at 0 uM concentration by measuring [3H]thymidine incorporation; format: functional, Homo sapiens
HUVEC [20] = test: Anti-proliferative effect on human umbilical vein endothelial cells (HUVEC) induced by endothelial cell growth supplement (ECGS) at 0.3 (uM) concentration; format: functional
HUVEC [21] = test: Anti-proliferative effect on HUVEC induced by vascular endothelial growth factor (VEGF)at 0.1 uM concentration by measuring [3H]thymidine incorporation; format: functional, Homo sapiens
Homo sapiens [22] = species: Homo sapiens; test: Anti-proliferative activity on normal human dermal fibroblasts (NHDF) induced by fetal bovine serum (FBS) at 0.1 uM concentration; format: functional
HUVEC [23] = test: Anti-proliferative effect on human umbilical vein endothelial cells (HUVEC) induced by fetal bovine serum (FBS) at 0.1 (uM) concentration; format: functional
HUVEC [24] = test: Anti-proliferative effect on HUVEC induced by vascular endothelial growth factor (VEGF)at 1 uM concentration by measuring [3H]thymidine incorporation; format: functional, Homo sapiens
Homo sapiens [25] = species: Homo sapiens; test: Anti-proliferative activity of normal human dermal fibroblasts (NHDF) induced by fetal bovine serum (FBS) at 0.3 uM concentration; format: functional
HUVEC [26] = test: Anti-proliferative effect on human umbilical vein endothelial cells (HUVEC) induced by basic fibroblast growth factor (bFGF) at 0.3 (uM) concentration; format: functional
HUVEC [27] = test: Anti-proliferative effect on HUVEC induced by fetal bovine serum (FBS) at 0 uM concentration by measuring [3H]thymidine incorporation; format: functional, Homo sapiens
Homo sapiens [28] = species: Homo sapiens; test: Anti-proliferative activity on NHDF induced by fetal bovine serum (FBS) at 0 uM concentration by measuring [3H]thymidine incorporation; format: functional
[29] = Anti-proliferative activity of KB cells from head and neck cancer cell line induced by fetal bovine serum (FBS) at 0.1 (uM) concentrations for % inhibition; format: functional, Homo sapiens, Cancer cell lines
HUVEC [30] = test: Anti-proliferative effect on human umbilical vein endothelial cells (HUVEC) induced by ECGS at 0.3 uM concentration by measuring [3H]thymidine incorporation; format: functional
HUVEC [31] = test: Anti-proliferative effect on human umbilical vein endothelial cells (HUVEC) induced by fetal bovine serum (FBS); format: functional, cell-based
HUVEC [32] = test: Anti-proliferative effect on HUVEC induced by basic fibroblast growth factor (bFGF)at 1 uM concentration by measuring [3H]thymidine incorporation; format: functional, Homo sapiens
HUVEC [33] = test: Anti-proliferative effect on human umbilical vein endothelial cells (HUVEC) induced by fetal bovine serum (FBS) at 1 uM concentration; format: functional
[34] = Anti-proliferative activity of KB cells from head and neck cancer cell line induced by fetal bovine serum (FBS) at 0.1 (uM) concentrations for [3H]- thymidine incorporation; format: functional, Homo sapiens, Cancer cell lines
Homo sapiens [35] = species: Homo sapiens; test: Anti-proliferative activity on NHDF induced by fetal bovine serum (FBS) at 0.1 uM concentration by measuring [3H]thymidine incorporation; format: functional
HUVEC [36] = test: Anti-proliferative effect on human umbilical vein endothelial cells (HUVEC) induced by vascular endothelial growth factor (VEGF) at 0.3 (uM) concentration; format: functional
HUVEC [37] = test: Anti-proliferative effect on human umbilical vein endothelial cells (HUVEC) induced by vascular endothelial growth factor (VEGF); format: functional, cell-based
[38] = Anti-proliferative activity of KB cells from head and neck cancer cell line induced by fetal bovine serum (FBS) at 0.3 (uM) concentrations for [3H]- thymidine incorporation; format: functional, Homo sapiens, Cancer cell lines
HUVEC [39] = test: Anti-proliferative effect on human umbilical vein endothelial cells (HUVEC) induced by ECGS at 0.1 uM concentration by measuring [3H]thymidine incorporation; format: functional
Homo sapiens [40] = species: Homo sapiens; test: Anti-proliferative activity on NHDF induced by fetal bovine serum (FBS) at 1 uM concentration by measuring [3H]thymidine incorporation; format: functional
HUVEC [41] = test: Anti-proliferative effect on human umbilical vein endothelial cells (HUVEC) induced by basic fibroblast growth factor (bFGF) at 1 (uM) concentration; format: functional
HUVEC [42] = test: Anti-proliferative effect on human umbilical vein endothelial cells (HUVEC) induced by vascular endothelial growth factor (VEGF) at 0.1 (uM) concentration; format: functional
HUVEC [43] = test: Anti-proliferative effect on HUVEC induced by basic fibroblast growth factor (bFGF)at 0.1 uM concentration by measuring [3H]thymidine incorporation; format: functional, Homo sapiens
HUVEC [44] = test: Anti-proliferative effect on human umbilical vein endothelial cells (HUVEC) induced by basic fibroblast growth factor (bFGF) at 0.1 (uM) concentration; format: functional
HUVEC [45] = test: Anti-proliferative effect on human umbilical vein endothelial cells (HUVEC) induced by ECGS at 1 uM concentration by measuring [3H]thymidine incorporation; format: functional
HUVEC [46] = test: Anti-proliferative effect on human umbilical vein endothelial cells (HUVEC) induced by endothelial cell growth supplement (ECGS) at 1 (uM) concentration; format: functional
Mus musculus [47] = test: Antirheumatic effect was determined in mice after combined treatment of TAS-202 (30 mg/kg/day) and indomethacin (1 mg/kg/day) at day 14; format: functional
Mus musculus [48] = test: Antirheumatic effect was determined in mice after oral administration of a dose of 1 mg/kg/day at day 14; format: functional; conditions: 336 h

## CCN(CC)c1nc(-c2cc(OC)c(OC)c(OC)c2)cc(-c2cc(OC)c(OC)cc2OC)n1
HUVEC [1]
  IC50: 148 nM
Homo sapiens [2]
  Activity: 2209.9 c.p.m.
HUVEC [3]
  Activity: 6927.6 c.p.m.
HUVEC [4]
  Activity: 2810.3 c.p.m.
HUVEC [5]
  Activity: 122.8 c.p.m.
[6]
  Activity: 13366.5 c.p.m.
HUVEC [7]
  Inhibition: 74.1%
[8]
  Inhibition: 16.5%
Homo sapiens [9]
  inhibition at 1 µM: -14.3%
HUVEC [10]
  Activity: 154.2 c.p.m.
[11]
  Activity: 18896 c.p.m.
[12]
  Inhibition: 29.3%
HUVEC [13]
  Activity: 437 c.p.m.
Mus musculus [14]
  inhibition in vivo at 30 mg/kg/day: 32.4%
HUVEC [15]
  Activity: 1263.7 c.p.m.
HUVEC [16]
  Activity: 9998.4 c.p.m.
HUVEC [17]
  IC50: 561 nM
HUVEC [18]
  Inhibition: 78.4%
HUVEC [19]
  Activity: 2077.3 c.p.m.
HUVEC [20]
  Inhibition: 64.6%
HUVEC [21]
  Activity: 1861.3 c.p.m.
Homo sapiens [22]
  inhibition at 0.1 µM: -2.2%
HUVEC [23]
  Inhibition: 26.7%
HUVEC [24]
  Activity: 448 c.p.m.
Homo sapiens [25]
  inhibition at 0.3 µM: -18.4%
HUVEC [26]
  Inhibition: 30.7%
HUVEC [27]
  Activity: 595.9 c.p.m.
Homo sapiens [28]
  Activity: 1867.1 c.p.m.
[29]
  Inhibition: -0.3%
HUVEC [30]
  Activity: 994.2 c.p.m.
HUVEC [31]
  IC50: 199 nM
HUVEC [32]
  Activity: 2969.9 c.p.m.
HUVEC [33]
  inhibition at 1 µM: 79.4%
[34]
  Activity: 18961.2 c.p.m.
Homo sapiens [35]
  Activity: 1907.7 c.p.m.
HUVEC [36]
  Inhibition: 39.2%
HUVEC [37]
  IC50: 398 nM
[38]
  Activity: 15784.2 c.p.m.
HUVEC [39]
  Activity: 1634.5 c.p.m.
  inhibition at 0.1 µM: 41.8%
Homo sapiens [40]
  Activity: 2133.2 c.p.m.
HUVEC [41]
  Inhibition: 70.3%
HUVEC [42]
  Inhibition: 10.4%
HUVEC [43]
  Activity: 6638.9 c.p.m.
HUVEC [44]
  Inhibition: 33.6%
HUVEC [45]
  Activity: 359 c.p.m.
HUVEC [46]
  Inhibition: 87.2%

## COc1ccc2c(c1)c(CC(=O)O)c(C)n2C(=O)c1ccc(Cl)cc1 [INDOMETHACIN]
Mus musculus [47]
  Inhibition: 75%
Mus musculus [48]
  inhibition in vivo at 1 mg/kg/day: 22.2%
